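96-well plates; 48 h exposure; 5 concentrations. Endpoints by linear interpolation between flanking doses. Not reached: highest tested concentration assigned. TGI denotes the concentration required for complete inhibition of growth.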
How the values were obtained:
Test in all cases: NCI-60 cell line screen, 48 h
NCI/ADR-RES ovarian = system: NCI/ADR-RES ovarian
SNB-75 CNS = system: SNB-75 CNS
HL-60(TB) leukemia = system: HL-60(TB) leukemia
HCT-116 colon = system: HCT-116 colon
IGROV1 ovarian = system: IGROV1 ovarian
NCI-H23 lung = system: NCI-H23 lung
OVCAR-5 ovarian = system: OVCAR-5 ovarian
K-562 leukemia = system: K-562 leukemia
786-0 renal = system: 786-0 renal
A549 NSCLC = system: A549 NSCLC
UO-31 renal = system: UO-31 renal
NCI-H522 lung = system: NCI-H522 lung
UACC-257 melanoma = system: UACC-257 melanoma
OVCAR-3 ovarian = system: OVCAR-3 ovarian
SF-539 CNS = system: SF-539 CNS
CAKI-1 renal = system: CAKI-1 renal
SF-268 CNS = system: SF-268 CNS
SW-620 colon = system: SW-620 colon
MALME-3M melanoma = system: MALME-3M melanoma
SF-295 CNS = system: SF-295 CNS
RXF 393 renal = system: RXF 393 renal
HS 578T breast = system: HS 578T breast
T-47D breast = system: T-47D breast
MOLT-4 leukemia = system: MOLT-4 leukemia
NCI-H226 lung = system: NCI-H226 lung
A498 renal = system: A498 renal
HOP-62 NSCLC = system: HOP-62 NSCLC
SR leukemia = system: SR leukemia
UACC-62 melanoma = system: UACC-62 melanoma
U251 CNS = system: U251 CNS
OVCAR-8 ovarian = system: OVCAR-8 ovarian
SNB-19 CNS = system: SNB-19 CNS
BT-549 breast = system: BT-549 breast
EKVX NSCLC = system: EKVX NSCLC
SK-MEL-28 melanoma = system: SK-MEL-28 melanoma
SK-MEL-5 melanoma = system: SK-MEL-5 melanoma
MCF7 breast = system: MCF7 breast
MDA-MB-231 breast = system: MDA-MB-231 breast
CCRF-CEM leukemia = system: CCRF-CEM leukemia
M14 melanoma = system: M14 melanoma
KM12 colon = system: KM12 colon
TK-10 renal = system: TK-10 renal
COLO 205 colon = system: COLO 205 colon
LOX IMVI melanoma = system: LOX IMVI melanoma
HOP-92 NSCLC = system: HOP-92 NSCLC
PC-3 prostate = system: PC-3 prostate
OVCAR-4 ovarian = system: OVCAR-4 ovarian
RPMI-8226 leukemia = system: RPMI-8226 leukemia
SN12C renal = system: SN12C renal
SK-MEL-2 melanoma = system: SK-MEL-2 melanoma
DU-145 prostate = system: DU-145 prostate
ACHN renal = system: ACHN renal
MDA-N = system: MDA-N
HT29 colon = system: HT29 colon
MDA-MB-435 = system: MDA-MB-435
SK-OV-3 ovarian = system: SK-OV-3 ovarian
NCI-H460 lung = system: NCI-H460 lung
HCT-15 colon = system: HCT-15 colon

Cc1cn(C2CC(Br)C(COC(c3ccccc3)(c3ccccc3)c3ccccc3)O2)c(=O)[nH]c1=O (configuration not stated)
TGI (NCI/ADR-RES ovarian): 28.9 µM | TGI (SNB-75 CNS): 24.3 µM | TGI (HL-60(TB) leukemia): > 100 µM | TGI (HCT-116 colon): 20.5 µM | TGI (IGROV1 ovarian): 27.9 µM | TGI (NCI-H23 lung): 20 µM | TGI (OVCAR-5 ovarian): 30.4 µM | TGI (K-562 leukemia): > 100 µM | TGI (786-0 renal): 27.4 µM | TGI (A549 NSCLC): 23.8 µM | TGI (UO-31 renal): 19.5 µM | TGI (NCI-H522 lung): 19.8 µM | TGI (UACC-257 melanoma): 29.8 µM | TGI (OVCAR-3 ovarian): 25.2 µM | TGI (SF-539 CNS): 31.6 µM | TGI (CAKI-1 renal): 29.2 µM | TGI (SF-268 CNS): 28.4 µM | TGI (SW-620 colon): 28.5 µM | TGI (MALME-3M melanoma): 32.4 µM | TGI (SF-295 CNS): 21.7 µM | TGI (RXF 393 renal): 23.5 µM | TGI (HS 578T breast): 32.8 µM | TGI (T-47D breast): 26.3 µM | TGI (MOLT-4 leukemia): 28.8 µM | TGI (NCI-H226 lung): 34.2 µM | TGI (A498 renal): 29.9 µM | TGI (HOP-62 NSCLC): 31 µM | TGI (SR leukemia): 23.1 µM | TGI (UACC-62 melanoma): 24.8 µM | TGI (U251 CNS): 24.9 µM | TGI (OVCAR-8 ovarian): 23.2 µM | TGI (SNB-19 CNS): 29.9 µM | TGI (BT-549 breast): 24.4 µM | TGI (EKVX NSCLC): 28.9 µM | TGI (SK-MEL-28 melanoma): 30.3 µM | TGI (SK-MEL-5 melanoma): 25.5 µM | TGI (MCF7 breast): 22.4 µM | TGI (MDA-MB-231 breast): 33.5 µM | TGI (CCRF-CEM leukemia): 24.1 µM | TGI (M14 melanoma): 26.7 µM | TGI (KM12 colon): 19.4 µM | TGI (TK-10 renal): 28 µM | TGI (COLO 205 colon): 27.1 µM | TGI (LOX IMVI melanoma): 24.4 µM | TGI (HOP-92 NSCLC): 24.6 µM | TGI (PC-3 prostate): 17.7 µM | TGI (OVCAR-4 ovarian): 25.8 µM | TGI (RPMI-8226 leukemia): 20.6 µM | TGI (SN12C renal): 27.8 µM | TGI (SK-MEL-2 melanoma): 28.7 µM | TGI (DU-145 prostate): 27.7 µM | TGI (ACHN renal): 26.8 µM | TGI (MDA-N): 28.2 µM | TGI (HT29 colon): 23.4 µM | TGI (MDA-MB-435): 30.1 µM

NS(=O)(=O)c1ccc(N=Nc2ncccc2O)cc1
TGI (NCI/ADR-RES ovarian): > 100 µM | TGI (SNB-75 CNS): > 100 µM | TGI (HL-60(TB) leukemia): > 100 µM | TGI (SK-OV-3 ovarian): > 100 µM | TGI (HCT-116 colon): > 100 µM | TGI (IGROV1 ovarian): > 100 µM | TGI (NCI-H23 lung): > 100 µM | TGI (OVCAR-5 ovarian): > 100 µM | TGI (K-562 leukemia): > 100 µM | TGI (786-0 renal): > 100 µM | TGI (A549 NSCLC): > 100 µM | TGI (UO-31 renal): > 100 µM | TGI (NCI-H522 lung): > 100 µM | TGI (UACC-257 melanoma): > 100 µM | TGI (OVCAR-3 ovarian): > 100 µM | TGI (SF-539 CNS): > 100 µM | TGI (CAKI-1 renal): > 100 µM | TGI (SF-268 CNS): > 100 µM | TGI (SW-620 colon): > 100 µM | TGI (MALME-3M melanoma): > 100 µM | TGI (SF-295 CNS): > 100 µM | TGI (RXF 393 renal): > 100 µM | TGI (HS 578T breast): > 100 µM | TGI (T-47D breast): > 100 µM | TGI (MOLT-4 leukemia): 87.8 µM | TGI (NCI-H226 lung): > 100 µM | TGI (A498 renal): > 100 µM | TGI (HOP-62 NSCLC): > 100 µM | TGI (SR leukemia): 71.9 µM | TGI (UACC-62 melanoma): > 100 µM | TGI (U251 CNS): > 100 µM | TGI (OVCAR-8 ovarian): > 100 µM | TGI (SNB-19 CNS): > 100 µM | TGI (BT-549 breast): > 100 µM | TGI (EKVX NSCLC): > 100 µM | TGI (SK-MEL-28 melanoma): > 100 µM | TGI (SK-MEL-5 melanoma): > 100 µM | TGI (MCF7 breast): > 100 µM | TGI (MDA-MB-231 breast): > 100 µM | TGI (NCI-H460 lung): > 100 µM | TGI (M14 melanoma): > 100 µM | TGI (KM12 colon): > 100 µM | TGI (TK-10 renal): > 100 µM | TGI (HCT-15 colon): > 100 µM | TGI (COLO 205 colon): > 100 µM | TGI (LOX IMVI melanoma): > 100 µM | TGI (HOP-92 NSCLC): > 100 µM | TGI (PC-3 prostate): > 100 µM | TGI (OVCAR-4 ovarian): > 100 µM | TGI (RPMI-8226 leukemia): > 100 µM | TGI (SN12C renal): > 100 µM | TGI (SK-MEL-2 melanoma): > 100 µM | TGI (DU-145 prostate): > 100 µM | TGI (ACHN renal): > 100 µM | TGI (MDA-N): > 100 µM | TGI (HT29 colon): > 100 µM | TGI (MDA-MB-435): > 100 µM

From PubChem BioAssay (NCI)
